According to patent publication US20090018163A1, “Substituted Heterocyclic Ethers and Their Use in CNS Disorders” (Bristol-Myers Squibb Company, priority 2007, published 2009):
Read-outs that look alike come from different tables or passages of the source.

How the values were obtained:
NK-1 = target: T1, NK-1 (Homo sapiens, UniProt P25103); test: NK1 radioligand binding assay; settings: U373 membrane preparation, [125I]Substance P
T1 construct: 30 ul/well of a 2×U373 membrane preparation; endogenous in cells; host or cells: U373 cells (crude membrane preparation)
T1 sequence (P25103 whole entry): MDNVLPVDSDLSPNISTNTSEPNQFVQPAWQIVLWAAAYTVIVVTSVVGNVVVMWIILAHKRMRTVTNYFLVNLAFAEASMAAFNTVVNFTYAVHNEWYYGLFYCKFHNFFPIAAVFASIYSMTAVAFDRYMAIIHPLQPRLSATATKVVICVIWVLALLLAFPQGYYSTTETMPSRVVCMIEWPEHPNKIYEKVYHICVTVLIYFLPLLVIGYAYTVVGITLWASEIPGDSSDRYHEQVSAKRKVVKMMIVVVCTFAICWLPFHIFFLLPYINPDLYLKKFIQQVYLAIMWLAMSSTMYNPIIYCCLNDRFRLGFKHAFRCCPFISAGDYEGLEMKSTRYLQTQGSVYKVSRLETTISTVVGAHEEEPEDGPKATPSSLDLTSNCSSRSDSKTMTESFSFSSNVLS
Experimental: (§1) NK-1 Binding assay. Crude membrane suspensions were prepared for the NK1 and SERT radioligand binding assays from U373 cells or recombinant HEK-293 cells expressing hSERT, respectively. Cells were harvested from T-175 flasks as follows. The medium is removed from the flasks and the cells rinsed with HBSS without Ca and without Mg. The cells are then incubated for 5-10 minutes in 10 mM Tris-Cl, pH 7.5, 5 mM EDTA before the cells are lifted with a combination of pipetting and scraping, as needed. To prepare membranes, the cell suspension is collected into centrifuge bottles and homogenized for 30 seconds with a Polytron homogenizer. The suspension is centrifuged for 30 min @ 32,000×g, 4° C., then the supernatant is decanted and the pellet resuspended and homogenized in 50 mM Tris-Cl, pH 7.5, 1 mM EDTA for 10 seconds. The suspension is then centrifuged again for 30 min @ 32,000×g, 4° C. The supernatant is decanted and the pellet resuspended in 50 mM Tris-Cl, pH 7.5, 1 mM EDTA and briefly homogenized. A Bradford assay (Bio-rad) is performed and the membrane preparation diluted to 2 mg/ml with 50 mM Tris-Cl, pH 7.5, 1 mM EDTA. Aliquots are prepared, and then frozen and stored at −80° C.
NK1 radioligand binding assay. Compounds are dissolved in 100% DMSO at a concentration 100× the desired highest assay concentration, serially diluted 1:3 in 100% DMSO, and 0.6 ul/well of each solution is dispensed to a Nunc polypropylene, round bottom, 384 well plate. 100% inhibition is defined with 0.6 ul/well of 1 mM L-733,060 (Sigma L-137) dissolved in DMSO. 30 ul/well of a 2×U373 membrane preparation (267 ug/ml in 100 mM Tris-Cl, pH 7.5, 6 mM MgCl2, 0.2% (v/v) Sigma mammalian protease inhibitor cocktail (Sigma P-8340), and 4 ug/ml chymostatin, Sigma C-7268) and 30 ul/well of a 2× radioligand solution (400 pM [^125I]Substance P (Perkin Elmer NEX-190) in 1% (w/v) BSA (Sigma A-2153), 0.1 mg/ml bacitracin, Sigma B-0125) are added to the well and the reaction incubated for 1 hour at room temperature. The contents of the assay plate are then transferred to a Millipore MultiscreenHTS GF/B filter plate which has been pretreated with 0.5% PEI for at least one hour. The plate is vacuum filtered and washed with 7 washes of 100 ul/well of 20 mM Tris-Cl, pH 7.5, 0.5% (w/v) BSA chilled to 4° C. The filtration and washing is completed in less than 90 s. The plates are air-dried overnight, 12 ul/well of MicroScint scintillation fluid added, and the plates counted in a Trilux.
(§2) Data analysis. The raw data are normalized to percent inhibition using control wells defining 0% (DMSO only) and 100% (selective inhibitor) inhibition which are run on each plate. Each plate is run in triplicate, and the concentration response curve thus generated is fit using the four-parameter dose response equation, Y=Bottom+(Top-Bottom)/(1+10̂((LogIC50−X)*HillSlope)) in order to determine the IC50 value for each compound. The radioligand concentration chosen for each assay corresponds to the Kd concentration determined through saturation binding analysis for each assay.

hSERT = target: T2, hSERT (Homo sapiens, UniProt P31645); test: SERT radioligand binding assay
T2 construct: expressed in transfected cells; host or cells: HEK-293 cells (crude membrane preparation)
T2 sequence (P31645 whole entry): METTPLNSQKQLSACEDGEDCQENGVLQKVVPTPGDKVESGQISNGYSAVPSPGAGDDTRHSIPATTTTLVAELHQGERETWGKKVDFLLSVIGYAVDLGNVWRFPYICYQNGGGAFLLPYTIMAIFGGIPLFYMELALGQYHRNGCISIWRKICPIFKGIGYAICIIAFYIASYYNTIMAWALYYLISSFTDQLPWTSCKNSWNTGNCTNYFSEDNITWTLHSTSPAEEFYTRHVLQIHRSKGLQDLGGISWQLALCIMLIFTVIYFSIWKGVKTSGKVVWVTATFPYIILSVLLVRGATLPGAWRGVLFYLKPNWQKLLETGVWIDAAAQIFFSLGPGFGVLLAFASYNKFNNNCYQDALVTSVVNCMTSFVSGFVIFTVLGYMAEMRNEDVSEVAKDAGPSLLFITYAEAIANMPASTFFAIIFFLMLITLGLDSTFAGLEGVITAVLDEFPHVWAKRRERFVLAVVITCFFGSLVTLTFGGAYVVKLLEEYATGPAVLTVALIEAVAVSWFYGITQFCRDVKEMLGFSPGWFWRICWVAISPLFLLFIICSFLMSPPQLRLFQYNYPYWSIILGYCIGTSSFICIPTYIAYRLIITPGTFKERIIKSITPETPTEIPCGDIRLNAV
Experimental: as §1
SERT radioligand binding assay. Compounds are dissolved in 100% DMSO at a concentration 100× the desired highest assay concentration, serially diluted 1:3 in 100% DMSO, and 0.4 ul/well of each solution is dispensed to a Nunc polypropylene, round bottom, 384 well plate. 100% inhibition is defined with 0.4 ul/well of 1 mM fluoxetine (Sigma F-132) dissolved in DMSO. 20 ul/well of a 2×HEK-hSERT membrane preparation (15 ug/ml in 50 mM Tris-Cl, pH 7.5, 120 mM NaCl, 5 mM KCl) and 20 ul/well of a 2× radioligand solution (520 pM [^125I]RTI-55 (Perkin-Elmer NEX-272) in 50 mM Tris-Cl, pH 7.5, 120 mM NaCl, 5 mM KCl) are added to each well and the reaction incubated for 1 hour at room temperature. The contents of the assay plate are then transferred to a Millipore MultiscreenHTS GF/B filter plate which has been pretreated with 0.5% PEI for at least one hour. The plate is vacuum filtered and washed with 7 washes of 100 ul/well of 50 mM Tris-Cl, pH 7.5, 120 mM NaCl, 5 mM KCl chilled to 4° C. The filtration and washing is completed in less than 90 s. The plates are air-dried overnight, 12 ul/well of MicroScint scintillation fluid added, and the plates counted in a Trilux.
as §2

[1] = HEK-hSERT membrane preparation, [125I]RTI-55, Table 1a, single enantiomers, read-out: SERT IC50
[2] = HEK-hSERT membrane preparation, [125I]RTI-55, Table 1, read-out: SERT IC50

SMILES	IC50 (NK-1; Table 1a, single enantiomers)	IC50 (NK-1; Table 1)	IC50 (hSERT; [2])	further results
CC(OCC1(c2ccc(F)cc2)CCNCC1)c1cc(C(F)(F)F)cc2cccnc12 (single isomer, unassigned) [Example 67]	> 300 nM			IC50 (hSERT; [1]): 0.01 to 100 nM
CC(OCC1(c2ccc(F)cc2)CCNCC1)c1cc(C(F)(F)F)cc2cccnc12 (single isomer, unassigned) [Example 68]	0.01 to 100 nM			IC50 (hSERT; [1]): 0.01 to 100 nM
CC(OCC1(c2ccc(F)cc2)CCN(C)CC1)c1cc(C(F)(F)F)cc2cccnc12 (single isomer, unassigned) [Example 69]	> 300 nM			IC50 (hSERT; read-out: SERT IC50, HEK-hSERT membrane preparation, [125I]RTI-55, Table 1a, single enantiomers): 0.01 to 100 nM
CC(OCC1(c2ccc(F)cc2)CCN(C)CC1)c1cc(C(F)(F)F)cc2cccnc12 (single isomer, unassigned) [Example 70]	0.01 to 100 nM			IC50 (hSERT; [1]): 0.01 to 100 nM
CC(OCC1(c2ccccc2)CCNCC1)c1cc(C(F)(F)F)cc2cccnc12 (single isomer, unassigned) [Example 71]	0.01 to 100 nM			IC50 (hSERT; [1]): 0.01 to 100 nM
CC(OCC1(c2ccccc2)CCN(C)CC1)c1cc(C(F)(F)F)cc2cccnc12 (single isomer, unassigned) [Example 72]	> 300 nM			IC50 (hSERT): 0.01 to 100 nM
CC(OCC1(c2ccccc2)CCN(C)CC1)c1cc(C(F)(F)F)cc2cccnc12 (single isomer, unassigned) [Example 73]	0.01 to 100 nM			IC50 (hSERT; [1]): 0.01 to 100 nM
CC(OCC1(c2ccccc2)CCN(C)CC1)c1cc(C(F)(F)F)cc2cccnc12 (single isomer, unassigned) [Example 74]	0.01 to 100 nM			IC50 (hSERT; [1]): 0.01 to 100 nM
Cc1cc(C(C)OCC2(c3ccc(F)cc3)CCN(C)CC2)c2ncccc2c1 (single isomer, unassigned) [Example 75]	> 300 nM			IC50 (hSERT): 0.01 to 100 nM
Cc1cc(C(C)OCC2(c3ccc(F)cc3)CCN(C)CC2)c2ncccc2c1 (single isomer, unassigned) [Example 76]	0.01 to 100 nM			IC50 (hSERT; [1]): 0.01 to 100 nM
CC(OCC1(c2ccc(F)cc2)CCNCC1)c1cc(Br)cc2cccnc12 (single isomer, unassigned) [Example 77]	0.01 to 100 nM			IC50 (hSERT; [1]): 0.01 to 100 nM
CC(OCC1(c2ccc(F)cc2)CCN(C)CC1)c1cc(Br)cc2cccnc12 (single isomer, unassigned) [Example 78]	100 to 300 nM			IC50 (hSERT): 0.01 to 100 nM
CC(OCC1(c2ccc(F)cc2)CCN(C)CC1)c1cc(Br)cc2cccnc12 (single isomer, unassigned) [Example 79]	0.01 to 100 nM			IC50 (hSERT; [1]): 0.01 to 100 nM
Cc1cc(COCC2(c3ccccc3)CCNCC2)c2ccccc2n1 [Example 1, 2-methyl-4-(((4-phenylpiperidine-4-yl)methoxy)methyl)quinoline]		> 300 nM	0.01 to 100 nM	
Cc1cc(COCC2(c3ccccc3)CCN(C)CC2)c2ccccc2n1 [Example 2, 2-methyl-4-(((1-methyl-4-phenylpiperidin-4-yl)methoxy)methyl)quinoline]		> 300 nM		IC50 (hSERT): 0.01 to 100 nM
Cc1cc(COCC2(c3ccccc3)CCNCC2)nc2ccccc12 [Example 3]		100 to 300 nM	0.01 to 100 nM	
Cc1cc(COCC2(c3ccccc3)CCN(C)CC2)nc2ccccc12 [Example 4]		100 to 300 nM		IC50 (hSERT): 0.01 to 100 nM
c1ccc(C2(COCc3ccc4ccccc4n3)CCNCC2)cc1 [Example 5]		> 300 nM	0.01 to 100 nM	
CN1CCC(COCc2ccc3ccccc3n2)(c2ccccc2)CC1 [Example 6]		> 300 nM	0.01 to 100 nM	

SMILES	IC50 (NK-1; Table 1a, single enantiomers)	IC50 (NK-1; Table 1)	IC50 (hSERT; [2])	further results
Nc1cc(COCC2(c3ccccc3)CCNCC2)nc2ccccc12 [Example 7]		> 300 nM	0.01 to 100 nM	
CN1CCC(COCc2cc(N)c3ccccc3n2)(c2ccccc2)CC1 [Example 8]		> 300 nM		IC50 (hSERT): 0.01 to 100 nM
Cc1ccc2cc(COCC3(c4ccccc4)CCNCC3)ccc2n1 [Example 9]		> 300 nM	0.01 to 100 nM	
Cc1ccc2cc(COCC3(c4ccccc4)CCN(C)CC3)ccc2n1 [Example 10]		> 300 nM	0.01 to 100 nM	
COc1ccc2nc(COCC3(c4ccccc4)CCNCC3)ccc2c1 [Example 11]		> 300 nM	0.01 to 100 nM	
COc1ccc2nc(COCC3(c4ccccc4)CCN(C)CC3)ccc2c1 [Example 12]		> 300 nM		IC50 (hSERT): 0.01 to 100 nM
Brc1cc(COCC2(c3ccccc3)CCNCC2)nc2ccccc12 [Example 13, 4-bromo-2-(((4-phenylpiperidin-4-yl)methoxy)methyl)quinoline]		100 to 300 nM	0.01 to 100 nM	
N#Cc1cc(COCC2(c3ccccc3)CCNCC2)nc2ccccc12 [Example 14, 2-(((4-phenylpiperidin-4-yl)methoxy)methyl)quinoline-4-carbonitrile]		> 300 nM	0.01 to 100 nM	
N#Cc1ccc(-c2cc(COCC3(c4ccccc4)CCNCC3)nc3ccccc23)cc1 [Example 15, 4-(2-(((4-phenylpiperidin-4-yl)methoxy)methyl)quinolin-4-yl)benzonitrile]		> 300 nM	0.01 to 100 nM	
CN(C)c1cc(COCC2(c3ccccc3)CCNCC2)nc2ccccc12 [Example 16, N,N-dimethyl-2-(((4-phenylpiperidin-4-yl)methoxy)methyl)quinolin-4-amine]		> 300 nM	0.01 to 100 nM	
FC(F)(F)c1ccc2c(Cl)cc(COCC3(c4ccccc4)CCNCC3)nc2c1 [Example 17, 4-chloro-2-(((4-phenylpiperidin-4-yl)methoxy)methyl)-7-(trifluoromethyl)quinoline]		> 300 nM	0.01 to 100 nM	
CN(C)c1cc(COCC2(c3ccccc3)CCNCC2)nc2cc(C(F)(F)F)ccc12 [Example 18, N,N-dimethyl-2-(((4-phenylpiperidin-4-yl)methoxy)methyl)-7-(trifluoromethyl)quinolin-4-amine]		> 300 nM	0.01 to 100 nM	
Cc1ccc2nc(COCC3(c4ccccc4)CCNCC3)cc(C)c2c1 [Example 19, 4,6-dimethyl-2-(((4-phenylpiperidin-4-yl)methoxy)methyl)quinoline]		> 300 nM	0.01 to 100 nM	
Cc1ccc2c(C)cc(COCC3(c4ccccc4)CCNCC3)nc2c1 [Example 20]		> 300 nM	0.01 to 100 nM	
Cc1cccc2nc(COCC3(c4ccccc4)CCNCC3)cc(C)c12 [Example 21]		> 300 nM	0.01 to 100 nM	
Brc1cc(COCC2(c3ccccc3)CCNCC2)c2ncccc2c1 [Example 22]		0.01 to 100 nM	0.01 to 100 nM	
CN1CCC(COCc2cc(Br)cc3cccnc23)(c2ccccc2)CC1 [Example 23]		0.01 to 100 nM	0.01 to 100 nM	
N#Cc1ccc(-c2cc(COCC3(c4ccccc4)CCNCC3)c3ncccc3c2)cc1 [Example 24]		> 300 nM	0.01 to 100 nM	
